# In publication PMC11358092, “Caspofungin enhances the potency of rifampin against Gram-negative bacteria” (Frontiers in Microbiology, 2024):
# Counter-ions that a name gives are not always drawn.
# Tested on: E. coli MG1655
# Assay: High-throughput screening of FDA-approved drug library for antibiotic adjuvants (growth inhibition, OD600)
# Format: cell-based, Escherichia coli
# Conditions: library drug alone, LB medium, 96-well, 8 h static culture at 37°C, relative to PMBN (positive) and DMSO (negative) controls, %, table head prints no unit
# Procedure: To screen for antibiotic adjuvants against GNB, […] library drugs or polymyxin B nonapeptide (PMBN, positive control) or dimethyl sulfoxide (DMSO, negative control). After 8 h of static culture at 37°C, the optical density at 600 nm (OD600) was measured using a microplate reader. Percentage inhibition was calculated as (ODN – ODX)/(ODN – ODP) × 100%, where ODX is the OD600 value for a test treated with drug X, and ODP and ODN are the OD600 values for the positive and negative control, respectively.
row,Structure (SMILES),"Growth inhibition, Compound [%]"
1,CCn1cc(C(=O)O)c(=O)c2cc(F)c(N3CCNCC3)nc21.CCn1cc(C(=O)O)c(=O)c2cc(F)c(N3CCNCC3)nc21.O.O.O [Enoxacin Sesquihydrate],110
2,CCn1cc(C(=O)O)c(=O)c2cc(F)c(N3CCNCC3)nc21 [Enoxacin],109
3,CCN1CCN(c2cc3c(cc2F)c(=O)c(C(=O)O)cn3C2CC2)CC1 [Enrofloxacin],95
4,C[C@@H](O)[C@H]1C(=O)N2C(C(=O)[O-])=C([C@H]3CCCO3)S[C@H]12.[Na+] [Faropenem sodium],100
5,CCCCCCCCc1ccc(CCC(N)(CO)CO)cc1 [Fingolimod hydrochloride],87
6,CCCCCCCCc1ccc(CCC(N)(CO)CO)cc1 [Fingolimod],90
7,Cc1c(-c2ccccc2)oc2c(C(=O)OCCN3CCCCC3)cccc2c1=O [Flavoxate hydrochloride],95
8,CN1CCN(c2c(F)cc3c(=O)c(C(=O)O)cn(CCF)c3c2F)CC1 [Fleroxacin],109
9,CS(=O)(=O)c1ccc([C@@H](O)[C@@H](CF)NC(=O)C(Cl)Cl)cc1 [Florfenicol],116
10,O=c1[nH]c(=O)n([C@H]2C[C@H](O)[C@@H](CO)O2)cc1F [Floxuridine],87
11,Nc1nc(F)nc2c1ncn2[C@@H]1O[C@H](COP(=O)(O)O)[C@@H](O)[C@@H]1O [Fludarabine Phosphate],43
12,CC1CCc2cc(F)cc3c(=O)c(C(=O)O)cn1c23 (stereo not shown) [Flumequine],108
13,C[C@@H]1O[C@@H]1P(=O)(O)O [Fosfomycin Disodium],102
14,C[C@@H]1O[C@@H]1P(=O)(O)O.NC(CO)(CO)CO [Fosfomycin Tromethamine],104
15,NC(=O)N/N=C/c1ccc([N+](=O)[O-])o1 [Furacilin],76
16,Cl.O=C1OC(CN2CCOCC2)CN1/N=C/c1ccc([N+](=O)[O-])o1 (stereo not shown) [Furaltadone hydrochloride],115
17,CCCN1C[C@H](C)[C@@H](O)[C@](C)(O)[C@@H](CC)OC(=O)[C@H](C)[C@@H](O[C@H]2C[C@@](C)(OC)[C@@H](O)[C@H](C)O2)[C@H](C)[C@@H](O[C@@H]2O[C@H](C)C[C@H](N(C)C)[C@H]2O)[C@](C)(O)C[C@H]1C [Gamithromycin],96
18,CC1NCc2cc(-c3ccc4c(=O)c(C(=O)O)cn(C5CC5)c4c3OC(F)F)ccc21.CS(=O)(=O)O.O (stereo not shown) [Garenoxacin mesylate hydrate],106
19,COc1c(N2CCNC(C)C2)c(F)cc2c(=O)c(C(=O)O)cn(C3CC3)c12.Cl (stereo not shown) [Gatifloxacin hydrochloride],104
20,COc1c(N2CCNC(C)C2)c(F)cc2c(=O)c(C(=O)O)cn(C3CC3)c12 (stereo not shown) [Gatifloxacin],100
21,CO/N=C1\CN(c2nc3c(cc2F)c(=O)c(C(=O)O)cn3C2CC2)CC1CN (stereo not shown) [Gemifloxacin mesylate],105
22,CN[C@@H]1[C@@H](O)[C@@H](O[C@@H]2[C@@H](O)[C@H](O[C@H]3O[C@H]([C@@H](C)NC)CC[C@H]3N)[C@@H](N)C[C@H]2N)OC[C@]1(C)O.O=S(=O)(O)O [Gentamycin sulfate],110

row,Structure (SMILES),"Growth inhibition, Compound [%]"
1,C[C@@H](O)[C@H]1C(=O)N2C(C(=O)O)=C(SCCN=CN)C[C@H]12 [Imipenem monohydrate],109
2,Oc1c(I)cc(I)c2cccnc12 [Iodoquinol],70
3,CN[C@@H]1[C@@H](O)[C@@H](O[C@@H]2[C@@H](O)[C@H](O[C@H]3O[C@H](CN)[C@@H](O)[C@H](O)[C@H]3O)[C@@H](N)C[C@H]2NC(=O)[C@@H](O)CN)OC[C@]1(C)O [Isepamicin sulfate],108
4,NC[C@H]1O[C@H](O[C@H]2[C@H](O)[C@@H](O[C@H]3O[C@H](CO)[C@@H](O)[C@H](N)[C@H]3O)[C@H](N)C[C@@H]2N)[C@H](O)[C@@H](O)[C@@H]1O [Kanamycin sulfate],109
5,CO[C@@]1(NC(=O)C(C(=O)O)c2ccc(O)cc2)C(=O)N2C(C(=O)O)=C(CSc3nnnn3C)CO[C@@H]21 (stereo partly shown) [Latamoxef sodium],94
6,C=C[C@]1(C)C[C@@H](OC(=O)CS[C@@H]2CC[C@@H](N)C[C@H]2O)C2(C)[C@H](C)CCC3(CCC(=O)[C@H]32)[C@@H](C)[C@@H]1O.CC(=O)O (stereo partly shown) [Lefamulin acetate],98
7,C[C@H]1COc2c(N3CCN(C)CC3)c(F)cc3c(=O)c(C(=O)O)cn1c23 [Levofloxacin Hemihydrate],114
8,C[C@H]1COc2c(N3CCN(C)CC3)c(F)cc3c(=O)c(C(=O)O)cn1c23 [Levofloxacin hydrochloride],110
9,C[C@H]1COc2c(N3CCN(C)CC3)c(F)cc3c(=O)c(C(=O)O)cn1c23 [Levofloxacin],102
10,CCn1cc(C(=O)O)c(=O)c2cc(F)c(N3CCNC(C)C3)c(F)c21 (stereo not shown) [Lomefloxacin hydrochloride],107
11,CCn1cc(C(=O)O)c(=O)c2cc(F)c(N3CCNC(C)C3)c(F)c21 (stereo not shown) [Lomefloxacin],99
12,CN1CCN(c2c(F)cc3c(=O)c(C(=O)O)cn4c3c2OCN4C)CC1 [Marbofloxacin],108
13,C[C@@H](O)[C@H]1C(=O)N2C(C(=O)O)=C(S[C@@H]3CN[C@H](C(=O)N(C)C)C3)[C@H](C)[C@H]12 [Meropenem trihydrate],86
14,C[C@@H](O)[C@H]1C(=O)N2C(C(=O)O)=C(S[C@@H]3CN[C@H](C(=O)N(C)C)C3)[C@H](C)[C@H]12 [Meropenem],90
15,C=C1c2cccc(O)c2C(=O)C2=C(O)[C@]3(O)C(=O)C(C(N)=O)=C(O)[C@@H](N(C)C)[C@@H]3[C@@H](O)[C@H]12 [Methacycline hydrochloride],112
16,CC1(C)S[C@@H]2[C@H](NC(=O)[C@H](NC(=O)N3CCN(S(C)(=O)=O)C3=O)c3ccccc3)C(=O)N2[C@H]1C(=O)O [Mezlocillin Sodium],89
17,CN(C)c1ccc(O)c2c1C[C@H]1C[C@H]3[C@H](N(C)C)C(O)=C(C(N)=O)C(=O)[C@@]3(O)C(O)=C1C2=O [Minocycline hydrochloride],91
18,CO/N=C1\C[C@]2(C[C@@H]3C[C@@H](C/C=C(\C)C[C@@H](C)/C=C/C=C4\CO[C@@H]5[C@H](O)C(C)=C[C@@H](C(=O)O3)[C@]45O)O2)O[C@H](/C(C)=C/C(C)C)[C@H]1C [Moxidectin],32
19,COc1c(N2C[C@@H]3CCCN[C@@H]3C2)c(F)cc2c(=O)c(C(=O)O)cn(C3CC3)c12 [Moxifloxacin hydrochloride],111
20,COc1c(N2C[C@@H]3CCCN[C@@H]3C2)c(F)cc2c(=O)c(C(=O)O)cn(C3CC3)c12 [Moxifloxacin],101
21,C/C(=C\C(=O)OCCCCCCCCC(=O)[O-])C[C@@H]1OC[C@H](C[C@@H]2O[C@H]2[C@@H](C)[C@H](C)O)[C@@H](O)[C@H]1O.C/C(=C\C(=O)OCCCCCCCCC(=O)[O-])C[C@@H]1OC[C@H](C[C@@H]2O[C@H]2[C@@H](C)[C@H](C)O)[C@@H](O)[C@H]1O.O.O.[Ca+2] [Mupirocin calcium],96
